Results from article PMC8277899, “A novel RyR1-selective inhibitor prevents and rescues sudden death in mouse models of malignant hyperthermia and heat stroke” (Nature Communications, 2021).
Converted amounts (≈) assume the structure as drawn. “And” between values parts separate entries of the source, which are not always exact repeats. Equal entries are not always repeated. Where two headings read alike, the source gives them in different places.

Experiments:
[1] = Metabolic stability in mouse liver microsomes; assay type: in vitro ADME; details: 0.5 μM, NADPH
Experimental: Cpd1 (final concentration was 0.5 μM) was incubated with human or mouse hepatic microsomes (XenoTech Ltd, Kansas City, KS) with nicotinamide adenine dinucleotide phosphate (NADPH) for 10 and 60 min at 37 °C. Each reaction was stopped by acetonitrile, and the value of unchanged compound 1 was determined by quantitating using LC–MS/MS, and the metabolic stability was evaluated as a remaining rate (%).

[2] = tested on: mice; experiment: Observation of side effects in mice; assay type: in vivo, mouse
[3] = Thermodynamic solubility in solutions for injection
[4] = Pharmacokinetics after i.p. administration in mice; assay type: in vivo, mouse; design: Cpd1 concentration (sheet Fig S5a) / Cpd1 concentration (sheet Fig S5b): unit not given here; details: for concentration at 10 min / concentration at 30 min / concentration at 60 min / Cmax / half-life / concentration at 5 min: C57BL/6J, mouse, plasma; for concentration at 10 min / concentration at 30 min / concentration at 60 min / concentration at 5 min: intraperitoneal; for Cmax / half-life: ip; for Cpd1 concentration (sheet Fig S5b) / Cpd1 concentration (sheet Fig S5a): i.p., single mice
Experimental: Cpd1 sodium salt (3 mg/kg and 10 mg/kg) dissolved in normal saline was administered i.p. to WT C57BL/6 J mice (10 week-old). Serial tail bled blood samples (∼20 μL) were collected using heparinized tip at 5, 10, 30, and 60 min after administration. Aliquots (5 μL) of plasma samples obtained from each blood were treated with 50 μL of acetonitrile and organic layer were injected onto LC–MS/MS system (Waters Corp., Milford, MA, USA). The pharmacokinetic parameters included maximum concentration (Cmax), elimination half-life (T½).

[5] = tested on: FDB muscle fibers from R163C mice; experiment: In vitro [Ca2+]i by Ca2+-selective microelectrode in FDB fibers from R163C mice; assay type: cell-based, mouse; details: 0-5 µM
Experimental: WT and mutant mice (R2509C, 8- to 20-week old; R163C, 12- to 16-week old, and G2435R, 12- to 16-week old) were euthanized and flexor digitorum brevis (FDB) muscles were dissected and incubated with 2 mg/mL collagenase (Worthington Biochemical Co., NJ, USA) in the HEPES-Krebs solution containing 2 mg/mL bovine serum albumin for 2–3 h at 37 °C. Following incubation, single cells were separated by gentle trituration in collagenase-free HEPES-Krebs solution. Isolated single FDB cells were seeded on a laminin-coated cover slip of the 35 mm glass-bottom dish or on 96 well plate coated with Cultrex basement membrane matrix (Trevigen, Minneapolis, USA).
Ca^2+ ion specific microelectrode recordings were performed as follows[38],[50]. For in vivo measurements, WT and heterozygous R163C mice (12- to 16-week old) were anesthetized by i.p. injection of 100 mg/kg ketamine and 5 mg/kg xylazine and placed on a 37 °C heating pad and their temperature was monitored. The vastus lateralis was exposed surgically after which its muscle fibers were impaled with double-barreled Ca^2+-selective microelectrode, and the potentials were recorded via a high-impedance amplifier (WPI Duo 773 electrometer; WPI, Sarasota, FL, USA). […] Muscle fibers were impaled with the microelectrodes as above and [Ca^2+]i was determined in the presence of varying (0–5 µM) concentrations of Cpd1.

CCCCCCCCn1cc(C(=O)O)c(=O)c2cc3c(cc21)OCO3 [Cpd1, 6,7-(methylenedioxy)-1-octyl-4-quinolone-3-carboxylic acid]
remaining rate (residual Cpd1, 0 min = 100%) ([1]; 10 min): 23% and 26% and 28% and 19% and 18%
remaining rate (residual Cpd1, 0 min = 100%) ([1]; 60 min): 3% and 2% and 4%
side effects [2]: no apparent side effects of Cpd1 other
water solubility ([3]; free acid): virtually water insoluble
solubility in normal saline compared to dantrolene ([3]; normal saline): 34 fold
solubility at 48 h ([3]; normal saline (0.9% NaCl), 25 °C, saline or isotonic, thermodynamic from solid): 849 ± 58 µg/mL (≈ 2460 µM)
plasma concentration ([4]; 3 mg/kg i.p., 10 min): 750 ng/mL and 510 ng/mL and 710 ng/mL and 660 ng/mL and 760 ng/mL
plasma concentration ([4]; 3 mg/kg i.p., 30 min): 150 ng/mL and 120 ng/mL and 140 ng/mL and 190 ng/mL
plasma concentration ([4]; 10 mg/kg i.p., 10 min): 2950 ng/mL and 3200 ng/mL and 1730 ng/mL and 2280 ng/mL and 1660 ng/mL
plasma concentration ([4]; 10 mg/kg i.p., 60 min): 50 ng/mL and 60 ng/mL
concentration at 10 min ([4]; 3 mg/kg, 3 mg/kg i.p., 10 min): 440 ng/mL
concentration at 30 min ([4]; 3 mg/kg, 3 mg/kg i.p., 30 min): 110 ng/mL
concentration at 10 min ([4]; 10 mg/kg, 10 mg/kg i.p., 10 min): 3080 ng/mL
concentration at 60 min ([4]; 10 mg/kg, 10 mg/kg i.p., 60 min): 40 ng/mL
Cmax ([4]; 3 mg/kg i.p.): 1500 ± 200 ng/mL
half-life ([4]; 3 mg/kg i.p., read-out: t1/2): 8.4 ± 1.4 min
Cmax ([4]; 10 mg/kg i.p.): 5400 ± 600 ng/mL
half-life ([4]; 10 mg/kg i.p., read-out: t1/2): 8.6 ± 1.6 min
half-life ([4]; both the 3 mg/kg and 10 mg/kg dose i.p., read-out: t1/2 (plasma half-life)): ~8 min
Cmax ([4]; female mice, 3 mg/kg i.p.): 1600 ± 100 ng/mL
half-life ([4]; female mice, 3 mg/kg i.p., read-out: t1/2): 8.6 ± 0.8 min
Cmax ([4]; female mice, 10 mg/kg i.p.): 6000 ± 400 ng/mL
half-life ([4]; female mice, 10 mg/kg i.p., read-out: t1/2): 9.3 ± 1 min
Cmax ([4]; female, 8-times injection of 1 mg/kg at 10 min intervals): 150 ± 110 ng/mL
half-life ([4]; female, 8-times injection of 1 mg/kg at 10 min intervals, read-out: t1/2): 14.8 ± 2.1 min
Cmax ([4]; male mice, 3 mg/kg i.p.): 1300 ± 400 ng/mL
half-life ([4]; male mice, 3 mg/kg i.p., read-out: t1/2): 8.3 ± 2.7 min
Cmax ([4]; male mice, 10 mg/kg i.p.): 5100 ± 1200 ng/mL
half-life ([4]; male mice, 10 mg/kg i.p., read-out: t1/2): 7.4 ± 2.5 min
Cmax ([4]; male, 8-times injection of 1 mg/kg at 10 min intervals): 670 ± 110 ng/mL
half-life ([4]; male, 8-times injection of 1 mg/kg at 10 min intervals, read-out: t1/2): 9.6 ± 2.7 min
plasma concentration ([4]; female, 8-times injection of 1 mg/kg at 10 min intervals, 5 min, 1 mg/kg): 110 ng/mL and 120 ng/mL
plasma concentration ([4]; female, 8-times injection of 1 mg/kg at 10 min intervals, 30 min, 1 mg/kg): 30 ng/mL
plasma concentration ([4]; female, 8-times injection of 1 mg/kg at 10 min intervals, 60 min, 1 mg/kg): 20 ng/mL
concentration at 5 min ([4]; female, 1 mg/kg, 8-times injection of 1 mg/kg at 10 min intervals, 5 min): 140 ng/mL
concentration at 10 min ([4]; female, 1 mg/kg, 8-times injection of 1 mg/kg at 10 min intervals, 10 min): 120 ng/mL
concentration at 30 min ([4]; female, 1 mg/kg, 8-times injection of 1 mg/kg at 10 min intervals, 30 min): 40 ng/mL
concentration at 60 min ([4]; female, 1 mg/kg, 8-times injection of 1 mg/kg at 10 min intervals, 60 min): 10 ng/mL
plasma concentration ([4]; male, 8-times injection of 1 mg/kg at 10 min intervals, 60 min, 1 mg/kg): 20 ng/mL
concentration at 5 min ([4]; male, 1 mg/kg, 8-times injection of 1 mg/kg at 10 min intervals, 5 min): 430 ng/mL
concentration at 60 min ([4]; male, 1 mg/kg, 8-times injection of 1 mg/kg at 10 min intervals, 60 min): 10 ng/mL
Cpd1 concentration (sheet Fig S5b) ([4]; time 5, dose head 3): 1.2 and 1.12 and 0.98
Cpd1 concentration (sheet Fig S5b) ([4]; time 5, dose head 10): 4.45 and 3.8 and 3.72
Cpd1 concentration (sheet Fig S5a) ([4]; time 10, dose head 3): 0.44 and 0.75 and 0.51
Cpd1 concentration (sheet Fig S5b) ([4]; time 10, dose head 3): 0.71 and 0.66 and 0.76
Cpd1 concentration (sheet Fig S5a) ([4]; time 10, dose head 10): 1.73 and 2.28 and 1.66
Cpd1 concentration (sheet Fig S5b) ([4]; time 10, dose head 10): 3.08 and 2.95 and 3.2
Cpd1 concentration (sheet Fig S5a) ([4]; time 30, dose head 3): 0.11 and 0.15 and 0.12
Cpd1 concentration (sheet Fig S5b) ([4]; time 30, dose head 3): 0.14 and 0.19
Cpd1 concentration (sheet Fig S5b) ([4]; time 30, dose head 10): 0.39 and 0.45 and 0.41
Cpd1 concentration (sheet Fig S5b) ([4]; time 60, dose head 3): 0.03 and 0.02
Cpd1 concentration (sheet Fig S5a) ([4]; time 60, dose head 10): 0.05 and 0.06 and 0.04
Cpd1 concentration (sheet Fig S5b) ([4]; time 60, dose head 10): 0.04 and 0.05 and 0.06
effect on [Ca2+]i in quiescent fibers [5]: reduced [Ca^2+]i in R163C fibers in a dose-dependent manner to the level of WT fibers
